Like-named read-outs stand apart in the source and are kept apart here.
Tests used:
[1] = system: obese female Zucker rats; experiment: Oral daily treatment of obese female Zucker rats for fourteen days; serum lipids and glycemic control indicators; format: in vivo; conditions: Rattus norvegicus, percent change from study prebleed; for change in vivo at 70 mg/kg/day: 70 mg/kg/day oral; for change in vivo at 90 mg/kg/day: 90 mg/kg/day oral; for change in vivo at 97 mg/kg/day: 97 mg/kg/day oral; for change in vivo at 100 mg/kg/day: 100 mg/kg/day oral
Experimental: In a number of different experiments, illustrative compounds of the invention are administered daily at a dose of up to 100 mg/kg to chow fed obese female Zucker rats for fourteen days in the morning by oral gavage in 1.5% carboxymethylcellulose/0.2% Tween 20 or 20% ethanol/80% polyethylene glycol (dosing vehicles). Animals are weighed daily. Animals are allowed free access to rodent chow and water throughout the study except on days of blood sampling where food is restricted for six hours prior to blood sampling. Blood glucose is determined after the 6 hour fast in the afternoon without anesthesia from a tail vein. Serum is also prepared from pretreatment blood samples subsequently obtained from the orbital venous plexus (with O2/CO2 anesthesia) and following the fourteenth dose at sacrifice from the heart following O2/CO2 anesthesia. Serums are assayed for lipoprotein cholesterol profiles, triglycerides, total cholesterol, Non HDL cholesterol, HDL cholesterol, the ratio of HDL cholesterol to that of Non HDL cholesterol, insulin, non esterified fatty acids, and beta hydroxy butyric acid. The percent body weight gain and the ratio of liver to body weight is also determined. These are shown as absolute values or as a percent change of the pretreatment values in Table C. [drawing 479] [drawing 480]

[2] = system: primary rat hepatocytes; experiment: Inhibition of lipid synthesis ([1-14C]-acetate incorporation) in primary cultures of rat hepatocytes; format: cell-based; conditions: Hepatocyte, total lipid synthesis, 4 hours incubation
Experimental: Compounds were tested for inhibition of lipid synthesis in primary cultures of rat hepatocytes. Male Sprague-Dawley rats were anesthetized with intraperitoneal injection of sodium pentobarbital (80 mg/kg). Rat hepatocytes were isolated essentially as described by the method of Seglen (Seglen, P. O. Hepatocyte suspensions and cultures as tools in experimental carcinogenesis. J. Toxicol. Environ. Health 1979, 5, 551-560). Hepatocytes were suspended in Dulbecco's Modified Eagles Medium containing 25 mM D-glucose, 14 mM HEPES, 5 mM L-glutamine, 5 mM leucine, 5 mM alanine, 10 mM lactate, 1 mM pyruvate, 0.2% bovine serum albumin, 17.4 mM non-essential amino acids, 20% fetal bovine serum, 100 nM insulin and 20 μg/mL gentamycin) and plated at a density of 1.5×10^5 cells/cm^2 on collagen-coated 96-well plates. Four hours after plating, media was replaced with the same media without serum. Cells were grown overnight to allow formation of monolayer cultures. Lipid synthesis incubation conditions were initially assessed to ensure the linearity of [1-^14C]-acetate incorporation into hepatocyte lipids for up to 4 hours. Hepatocyte lipid synthesis inhibitory activity was assessed during incubations in the presence of 0.25 μCi [1-^14C]-acetate/well (final radiospecific activity in assay is 1 Ci/mol) and 0, 1, 3, 10, 30, 100 or 300 μM of compounds for 4 hours. At the end of the 4-hour incubation period, medium was discarded and cells were washed twice with ice-cold phosphate buffered saline and stored frozen prior to analysis. To determine total lipid synthesis, 170 μl of MicroScint-E® and 50 μl water was added to each well to extract and partition the lipid soluble products to the upper organic phase containing the scintillant. Lipid radioactivity was assessed by scintillation spectroscopy in a Packard TopCount NXT.

[3] = system: obese female Zucker rats; experiment: Oral daily treatment of obese female Zucker rats for fourteen days; serum lipids and glycemic control indicators; format: in vivo; conditions: Rattus norvegicus, 168 h; percent change from study prebleed; week 1; 97 mg/kg/day oral; read-out: HDL-C
[4] = 168 h, week 1, read-out: Glucose
[5] = 168 h, week 1, read-out: Insulin
[6] = 168 h, week 1, read-out: Non-HDL-C
[7] = 336 h, week 2, read-out: Glucose
[8] = 336 h, week 2, read-out: Insulin
[9] = 336 h, week 2, read-out: Non-HDL-C

For `CC(C)(Cc1cccc(Oc2cccc(CC(C)(C)C(=O)O)c2)c1)C(=O)O` [Compound 135, 3-{3-[3-(2-Carboxy-2-methylpropyl)-phenoxy]-phenyl}-2,2-dimethylpropionic acid], the change in vivo at 70 mg/kg/day [1, 4] was -13%, the change in vivo at 70 mg/kg/day ([1]; 168 h, week 1, read-out: HDL-C) was 63% and the change in vivo at 70 mg/kg/day [1, 5] was -43%. For the same compound, the change in vivo at 70 mg/kg/day [1, 6] was -53%, the change in vivo at 70 mg/kg/day ([1]; 168 h, week 1, read-out: TC) was 3% and the change in vivo at 70 mg/kg/day ([1]; 168 h, week 1, read-out: TG) was -45%. The change in vivo at 70 mg/kg/day [1, 7] was -16%, the change in vivo at 70 mg/kg/day ([1]; 336 h, week 2, read-out: HDL-C) was 31% and the change in vivo at 70 mg/kg/day [1, 8] was 1%. It also gave a change in vivo at 70 mg/kg/day [1, 9] of -41%, a change in vivo at 70 mg/kg/day ([1]; 336 h, week 2, read-out: TC) of -7% and a change in vivo at 70 mg/kg/day ([1]; 336 h, week 2, read-out: TG) of -52%. For the same compound, the IC50 [2] was 52 µM.
Compound `CC(C)(CO)Cc1cccc(Oc2cccc(CC(C)(C)CO)c2)c1` [Compound 136, 3-{3-[3-(3-Hydroxy-2,2-dimethylpropyl)-phenoxy]-phenyl}-2,2-dimethylpropan-1-ol] has a change in vivo at 90 mg/kg/day [1, 4] of -20%, a change in vivo at 90 mg/kg/day ([1]; 168 h, week 1, read-out: HDL-C) of 22% and a change in vivo at 90 mg/kg/day [1, 5] of -57%. The change in vivo at 90 mg/kg/day [1, 6] was -12%, the change in vivo at 90 mg/kg/day ([1]; 168 h, week 1, read-out: TC) was 1% and the change in vivo at 90 mg/kg/day ([1]; 168 h, week 1, read-out: TG) was 13%. It also gave a change in vivo at 90 mg/kg/day [1, 7] of -3%, a change in vivo at 90 mg/kg/day ([1]; 336 h, week 2, read-out: HDL-C) of -4% and a change in vivo at 90 mg/kg/day [1, 8] of -45%. The change in vivo at 90 mg/kg/day [1, 9] was 23%, the change in vivo at 90 mg/kg/day ([1]; 336 h, week 2, read-out: TC) was 9% and the change in vivo at 90 mg/kg/day ([1]; 336 h, week 2, read-out: TG) was 18%. For the same compound, the IC50 [2] was 98 µM.
In the case of `CC(C)(CO)CCCC1CCC(CCCC(C)(C)CO)O1` (centres unmarked) [Compound 138, 5-[5-(5-Hydroxy-4,4-dimethylpentyl)-tetrahydrofuran-2-yl]-2,2-dimethylpentan-1-ol], the change in vivo at 97 mg/kg/day [1, 4] is reported as 35%, the change in vivo at 97 mg/kg/day [1, 5] is reported as 43% and the change in vivo at 97 mg/kg/day [1, 6] is reported as 11%. For the same compound, the change in vivo at 97 mg/kg/day ([1]; 168 h, week 1, read-out: TC) was 128%, the change in vivo at 97 mg/kg/day ([1]; 168 h, week 1, read-out: TG) was -49% and the change in vivo at 97 mg/kg/day [1, 7] was 10%. The change in vivo at 97 mg/kg/day ([1]; 336 h, week 2, read-out: HDL-C) was 140%, the change in vivo at 97 mg/kg/day [1, 8] was 69% and the change in vivo at 97 mg/kg/day [1, 9] was 31%. It also gave a change in vivo at 97 mg/kg/day ([1]; 336 h, week 2, read-out: TC) of 74%, a change in vivo at 97 mg/kg/day ([1]; 336 h, week 2, read-out: TG) of -13% and a change in vivo at 97 mg/kg/day [3] of 287%. It also gave an IC50 [2] of 9 µM.
For `CC(C)(CO)CCCC1CCCC(CCCC(C)(C)CO)O1` (centres unmarked) [Compound 141, 5-[6-(5-Hydroxy-4,4-dimethylpentyl)-tetrahydropyran-2-yl]-2,2-dimethylpentan-1-ol], the change in vivo at 100 mg/kg/day [1, 4] was -14%, the change in vivo at 100 mg/kg/day ([1]; 168 h, week 1, read-out: HDL-C) was 75% and the change in vivo at 100 mg/kg/day [1, 5] was -2%. For the same compound, the change in vivo at 100 mg/kg/day [1, 6] was -70%, the change in vivo at 100 mg/kg/day ([1]; 168 h, week 1, read-out: TC) was 28% and the change in vivo at 100 mg/kg/day ([1]; 168 h, week 1, read-out: TG) was -74%. For the same compound, the change in vivo at 100 mg/kg/day [1, 7] was -9%, the change in vivo at 100 mg/kg/day ([1]; 336 h, week 2, read-out: HDL-C) was 127% and the change in vivo at 100 mg/kg/day [1, 8] was 10%. For the same compound, the change in vivo at 100 mg/kg/day [1, 9] was -31%, the change in vivo at 100 mg/kg/day ([1]; 336 h, week 2, read-out: TC) was 70% and the change in vivo at 100 mg/kg/day ([1]; 336 h, week 2, read-out: TG) was -47%. It also gave an IC50 [2] of 39 µM.
For `CC(C)(CCCCOCCCCC(C)(C)CCC(=O)O)CCC(=O)O` [Compound 145, 4,4,14,14-Tetramethyl-9-oxaheptadecane-1,17-dioic acid], the change in vivo at 100 mg/kg/day [1, 4] was -1%, the change in vivo at 100 mg/kg/day ([1]; 168 h, week 1, read-out: HDL-C) was 13% and the change in vivo at 100 mg/kg/day [1, 5] was -34%. The change in vivo at 100 mg/kg/day [1, 6] was -50%, the change in vivo at 100 mg/kg/day ([1]; 168 h, week 1, read-out: TC) was -3% and the change in vivo at 100 mg/kg/day ([1]; 168 h, week 1, read-out: TG) was -80%. For the same compound, the change in vivo at 100 mg/kg/day [1, 7] was 16%, the change in vivo at 100 mg/kg/day ([1]; 336 h, week 2, read-out: HDL-C) was 39% and the change in vivo at 100 mg/kg/day [1, 8] was -45%. For the same compound, the change in vivo at 100 mg/kg/day [1, 9] was -30%, the change in vivo at 100 mg/kg/day ([1]; 336 h, week 2, read-out: TC) was 21% and the change in vivo at 100 mg/kg/day ([1]; 336 h, week 2, read-out: TG) was -73%. For the same compound, the IC50 [2] was 22 µM.

From patent publication US20040192771A1, “Ether compounds and compositions for cholesterol management and related uses” (priority 2001, published 2004)
